In brackets after ≈: the same amount, converted by molar mass. Like-named read-outs stand apart in the source and are kept apart here.
What was measured:
human (hACC2) ACC2 = human (hACC2) ACC2 (Homo sapiens, UniProt O00763); assay: In vitro Acetyl-CoA Carboxylase (ACC) inhibition assay (ADP-Glo), hACC2; assay type: biochemical
Experimental: The detailed procedure is as follows. […] 10 μL ADP glo reagent was added. […] 20 μL kinase detection reagent was added.
“NA” stands for “not assayed.”

fungal (fACC2) ACC2 = fungal (fACC2) ACC2 (UniProt Q00955); details: read-out: fACC2 IC50; fungal ACC2, ADP-Glo
Sequence of fungal (fACC2) ACC2 (Q00955 whole entry): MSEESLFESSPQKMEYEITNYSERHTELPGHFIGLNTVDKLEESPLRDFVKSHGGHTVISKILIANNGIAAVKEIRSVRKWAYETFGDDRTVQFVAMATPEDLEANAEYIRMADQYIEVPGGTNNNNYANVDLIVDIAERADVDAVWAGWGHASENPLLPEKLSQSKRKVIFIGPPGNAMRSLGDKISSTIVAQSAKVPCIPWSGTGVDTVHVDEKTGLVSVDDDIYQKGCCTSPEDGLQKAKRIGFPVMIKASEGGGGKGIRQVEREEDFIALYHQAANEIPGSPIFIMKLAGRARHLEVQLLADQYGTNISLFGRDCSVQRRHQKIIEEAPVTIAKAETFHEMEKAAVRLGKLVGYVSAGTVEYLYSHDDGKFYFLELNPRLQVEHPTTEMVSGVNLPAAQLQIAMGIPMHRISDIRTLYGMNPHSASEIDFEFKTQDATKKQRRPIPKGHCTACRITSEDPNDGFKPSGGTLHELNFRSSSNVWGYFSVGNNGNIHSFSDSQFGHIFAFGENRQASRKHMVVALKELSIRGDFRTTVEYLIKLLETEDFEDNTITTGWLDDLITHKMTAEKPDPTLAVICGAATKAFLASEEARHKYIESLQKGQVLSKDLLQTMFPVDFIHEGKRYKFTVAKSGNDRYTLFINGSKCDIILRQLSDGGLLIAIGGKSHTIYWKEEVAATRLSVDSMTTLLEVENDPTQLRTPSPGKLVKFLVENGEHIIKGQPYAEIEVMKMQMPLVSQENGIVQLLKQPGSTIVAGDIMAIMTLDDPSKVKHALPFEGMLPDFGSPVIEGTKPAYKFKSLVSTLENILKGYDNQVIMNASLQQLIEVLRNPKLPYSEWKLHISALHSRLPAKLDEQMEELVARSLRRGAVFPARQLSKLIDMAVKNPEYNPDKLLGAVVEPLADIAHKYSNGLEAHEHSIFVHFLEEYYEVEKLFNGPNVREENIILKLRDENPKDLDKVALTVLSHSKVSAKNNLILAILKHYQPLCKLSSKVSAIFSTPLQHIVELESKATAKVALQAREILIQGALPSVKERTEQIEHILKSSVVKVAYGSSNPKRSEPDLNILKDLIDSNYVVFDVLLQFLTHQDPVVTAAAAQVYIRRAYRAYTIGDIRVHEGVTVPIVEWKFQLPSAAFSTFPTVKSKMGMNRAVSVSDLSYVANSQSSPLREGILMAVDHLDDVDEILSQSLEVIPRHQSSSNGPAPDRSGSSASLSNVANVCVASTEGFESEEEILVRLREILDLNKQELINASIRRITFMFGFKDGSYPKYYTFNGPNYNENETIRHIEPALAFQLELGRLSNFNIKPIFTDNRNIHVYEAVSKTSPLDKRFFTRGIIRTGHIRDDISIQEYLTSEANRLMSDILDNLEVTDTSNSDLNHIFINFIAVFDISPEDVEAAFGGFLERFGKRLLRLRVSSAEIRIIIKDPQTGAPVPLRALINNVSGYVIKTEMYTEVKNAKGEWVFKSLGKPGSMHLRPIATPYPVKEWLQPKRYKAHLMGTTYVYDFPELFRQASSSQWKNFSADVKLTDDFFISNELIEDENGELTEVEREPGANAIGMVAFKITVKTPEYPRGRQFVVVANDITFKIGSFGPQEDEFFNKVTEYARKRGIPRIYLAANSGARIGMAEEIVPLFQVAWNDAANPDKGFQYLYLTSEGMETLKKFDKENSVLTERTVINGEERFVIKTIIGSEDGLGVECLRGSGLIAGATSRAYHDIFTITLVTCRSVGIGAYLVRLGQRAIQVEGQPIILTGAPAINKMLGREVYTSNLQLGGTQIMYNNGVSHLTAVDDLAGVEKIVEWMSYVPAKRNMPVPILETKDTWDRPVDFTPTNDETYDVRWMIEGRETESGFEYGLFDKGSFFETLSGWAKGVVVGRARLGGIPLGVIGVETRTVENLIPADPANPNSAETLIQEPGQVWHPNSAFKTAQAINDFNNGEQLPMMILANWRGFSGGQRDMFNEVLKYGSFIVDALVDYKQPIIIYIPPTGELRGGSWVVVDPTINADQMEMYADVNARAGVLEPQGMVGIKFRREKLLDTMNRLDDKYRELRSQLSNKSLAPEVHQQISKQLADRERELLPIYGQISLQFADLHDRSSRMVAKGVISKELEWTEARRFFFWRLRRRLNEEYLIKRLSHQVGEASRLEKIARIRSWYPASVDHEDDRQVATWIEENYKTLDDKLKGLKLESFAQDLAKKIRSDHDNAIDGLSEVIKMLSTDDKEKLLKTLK

C. albicans ATCC 90028 = assay: Anti-Fungal (Candida) Activity Assay, broth microtiter MIC; assay type: cell-based; details: read-out: MIC C. albicans ATCC 90028
How it was run: (§1)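 Broth microdilution per CLSI M27-A3 in RPMI 1640 + MOPS, with inocula from colonies grown 24 h at 35 °C on Sabouraud dextrose agar and set by standard curve. Compounds came from 1 mg/mL DMSO stocks. MIC was read visually against the growth control at 48 h.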

[1] = system: C. parapsilosis ATCC 22019; assay: as above; assay type: cell-based; details: Lodderomyces parapsilosis, read-out: MIC C. parapsilosis ATCC 22019
How it was run: as §1

C. krusei ATCC 6258 = assay: as above; assay type: cell-based; details: Pichia kudriavzevii, read-out: MIC C. krusei ATCC 6258
How it was run: as §1

Diplodia maydis (Dm) = assay: Growth inhibition assay of fungal pathogens; assay type: cell-based; details: Stenocarpella maydis, 48 h, read-out: Concentration at 90% Inhibition Dm
How it was run: (§2)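 Percent growth inhibition was derived from 48 h OD600 and visual scores relative to 2% DMSO, with blank background subtraction. Fungi were grown from spores in 17% V8 liquid medium, R. solani from 1.5 mm plugs in ¼ PDB, with compound at final 50/10/2 or 2/0.4/0.08 ppm.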

[2] = system: Fusarium virguliforme (Fv); assay: Growth inhibition assay of fungal pathogens; assay type: cell-based; details: 48 h
How it was run: (§3)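 Liquid-culture assay in which test compounds are applied at three final concentrations (50, 10, 2 ppm or 2, 0.4, 0.08 ppm). Inoculum levels follow 48 h growth curves for each fungus. Growth is monitored by OD600 and by eye, and the 48 h values give % inhibition against DMSO.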

Rhizoctonia solani (Rs) = assay: Growth inhibition assay of fungal pathogens; assay type: cell-based; details: 48 h, read-out: Concentration at 90% Inhibition Rs
How it was run: as §2

[3] = system: Collectotrichum graminicola (Cg); assay: Growth inhibition assay of fungal pathogens; assay type: cell-based; details: 48 h, read-out: Concentration at 90% Inhibition Cg
How it was run: as §3

[4] = system: Fusarium moniliforme (Fm); assay: Growth inhibition assay of fungal pathogens; assay type: cell-based; details: for IC90: Fusarium verticillioides, 48 h, read-out: Concentration at 90% Inhibition Fm
How it was run: as §2

Botrtyis cinerea (Bc) = assay: Growth inhibition assay of fungal pathogens; assay type: cell-based; details: 48 h, read-out: Concentration at 90% Inhibition Bc
How it was run: as §2

Septoria tritici (St) = assay: Growth inhibition assay of fungal pathogens; assay type: cell-based; details: for IC90: Zymoseptoria tritici, read-out: Concentration at 90% Inhibition St
How it was run: as §3

[5] = system: Phytophthora capsici (Pc); assay: Growth inhibition assay of fungal pathogens; assay type: cell-based; details: for IC90: Phytophthora capsici, read-out: Concentration at 90% Inhibition Pc
How it was run: as §3

[6] = ATCC90028, 3 replicates, MIC recorded at 48 h
[7] = ATCC22019, 3 replicates, MIC recorded at 48 h
[8] = ATCC6258, 3 replicates, MIC recorded at 48 h
[9] = Table 4a, 48 hours, read-out: Concentration at 90% Inhibition Fv
[10] = Table 4b, 48 hours, read-out: Concentration at 90% Inhibition Fv
[11] = read-out: Concentration at 90% Inhibition Fv, Table 4a, 48 hours
[12] = read-out: Concentration at 90% Inhibition Fv, Table 4b, 48 hours

Sequence of human (hACC2) ACC2 (O00763 whole entry): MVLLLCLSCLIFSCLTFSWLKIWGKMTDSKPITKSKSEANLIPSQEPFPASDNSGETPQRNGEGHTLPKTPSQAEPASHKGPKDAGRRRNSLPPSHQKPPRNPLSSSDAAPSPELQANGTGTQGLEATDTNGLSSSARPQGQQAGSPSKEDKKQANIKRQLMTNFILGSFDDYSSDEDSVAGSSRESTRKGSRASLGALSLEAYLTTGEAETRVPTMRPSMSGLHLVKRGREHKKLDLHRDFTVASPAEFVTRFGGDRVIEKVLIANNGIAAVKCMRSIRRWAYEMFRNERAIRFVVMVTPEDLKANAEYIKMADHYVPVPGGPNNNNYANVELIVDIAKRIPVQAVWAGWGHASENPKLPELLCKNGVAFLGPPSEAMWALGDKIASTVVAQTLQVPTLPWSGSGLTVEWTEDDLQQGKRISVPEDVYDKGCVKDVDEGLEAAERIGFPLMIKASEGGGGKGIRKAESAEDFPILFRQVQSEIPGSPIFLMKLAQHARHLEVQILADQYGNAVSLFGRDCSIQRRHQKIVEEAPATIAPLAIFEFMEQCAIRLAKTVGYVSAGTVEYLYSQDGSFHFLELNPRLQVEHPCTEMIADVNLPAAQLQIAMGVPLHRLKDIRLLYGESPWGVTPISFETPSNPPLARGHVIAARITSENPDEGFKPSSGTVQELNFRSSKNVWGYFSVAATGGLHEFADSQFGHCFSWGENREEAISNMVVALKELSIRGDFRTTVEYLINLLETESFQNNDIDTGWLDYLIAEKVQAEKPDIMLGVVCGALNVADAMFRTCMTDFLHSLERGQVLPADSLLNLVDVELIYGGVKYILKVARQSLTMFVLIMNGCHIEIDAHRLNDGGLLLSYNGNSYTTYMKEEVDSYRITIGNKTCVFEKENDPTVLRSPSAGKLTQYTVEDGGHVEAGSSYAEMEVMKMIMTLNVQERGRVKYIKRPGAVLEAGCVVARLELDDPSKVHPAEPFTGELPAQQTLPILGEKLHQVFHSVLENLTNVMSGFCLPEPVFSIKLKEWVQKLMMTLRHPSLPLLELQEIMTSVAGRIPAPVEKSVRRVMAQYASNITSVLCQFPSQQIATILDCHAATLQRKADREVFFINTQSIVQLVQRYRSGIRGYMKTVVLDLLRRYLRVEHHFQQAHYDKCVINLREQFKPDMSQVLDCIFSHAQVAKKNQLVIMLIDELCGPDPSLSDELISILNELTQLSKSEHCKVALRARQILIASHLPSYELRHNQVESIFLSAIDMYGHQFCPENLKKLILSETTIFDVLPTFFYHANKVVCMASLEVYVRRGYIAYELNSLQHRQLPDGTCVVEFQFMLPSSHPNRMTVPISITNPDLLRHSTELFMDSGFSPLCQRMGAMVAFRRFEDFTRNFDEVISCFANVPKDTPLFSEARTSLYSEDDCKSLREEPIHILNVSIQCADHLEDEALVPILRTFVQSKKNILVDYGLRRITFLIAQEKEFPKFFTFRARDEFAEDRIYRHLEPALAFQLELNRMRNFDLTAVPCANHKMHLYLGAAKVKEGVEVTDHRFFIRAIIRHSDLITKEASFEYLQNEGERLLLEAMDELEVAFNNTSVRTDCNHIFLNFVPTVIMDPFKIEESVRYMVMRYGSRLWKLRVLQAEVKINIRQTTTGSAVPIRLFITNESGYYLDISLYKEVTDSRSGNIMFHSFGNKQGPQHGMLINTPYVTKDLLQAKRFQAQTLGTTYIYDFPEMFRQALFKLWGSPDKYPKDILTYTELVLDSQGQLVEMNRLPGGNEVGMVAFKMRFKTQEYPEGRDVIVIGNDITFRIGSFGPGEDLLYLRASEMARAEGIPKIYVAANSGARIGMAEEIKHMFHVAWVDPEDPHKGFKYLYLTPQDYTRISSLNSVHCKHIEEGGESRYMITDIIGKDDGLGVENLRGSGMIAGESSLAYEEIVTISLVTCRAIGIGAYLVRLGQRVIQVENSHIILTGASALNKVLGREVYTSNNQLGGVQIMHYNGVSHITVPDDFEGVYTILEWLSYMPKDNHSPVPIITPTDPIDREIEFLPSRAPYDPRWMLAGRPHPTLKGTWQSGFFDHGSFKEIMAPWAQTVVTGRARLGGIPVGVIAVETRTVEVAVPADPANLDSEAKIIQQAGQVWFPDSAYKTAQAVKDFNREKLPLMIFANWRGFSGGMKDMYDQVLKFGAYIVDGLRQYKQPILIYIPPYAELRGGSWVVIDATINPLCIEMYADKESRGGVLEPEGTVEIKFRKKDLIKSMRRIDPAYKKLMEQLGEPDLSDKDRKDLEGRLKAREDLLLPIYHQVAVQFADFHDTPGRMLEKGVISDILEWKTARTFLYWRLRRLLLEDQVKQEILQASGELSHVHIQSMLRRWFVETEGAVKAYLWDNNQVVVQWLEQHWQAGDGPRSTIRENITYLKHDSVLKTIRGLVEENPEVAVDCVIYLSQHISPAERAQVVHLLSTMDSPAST

| SMILES | IC50 (human (hACC2) ACC2) [nM] | IC50 (fungal (fACC2) ACC2) [nM] | MIC (C. albicans ATCC 90028; [6]) [µg/mL] | MIC [1, 7] [µg/mL] | MIC (C. krusei ATCC 6258; [8]) [µg/mL] | IC90 (Diplodia maydis (Dm); Table 4a) [µg/mL] | IC90 (Diplodia maydis (Dm); Table 4b) [µg/mL] | IC90 [2, 9] [µg/mL] | IC90 [2, 10] [µg/mL] | IC90 (Rhizoctonia solani (Rs); Table 4a) [µg/mL] | IC90 (Rhizoctonia solani (Rs); Table 4b) [µg/mL] | IC90 ([3]; Table 4a) [µg/mL] | IC90 ([3]; Table 4b) [µg/mL] | IC90 ([4]; Table 4a, 48 hours) [µg/mL] | IC90 ([4]; Table 4b, 48 hours) [µg/mL] | IC90 (Botrtyis cinerea (Bc); Table 4a) [µg/mL] | IC90 (Botrtyis cinerea (Bc); Table 4b) [µg/mL] | Concentration at 90% Inhibition St (Septoria tritici (St); Table 4b, 48 hours) | IC90 (Septoria tritici (St); Table 4a, 48 hours) [µg/mL] | IC90 ([5]; Table 4a, 48 hours) [µg/mL] | other results |
| --- | --- | --- | --- | --- | --- | --- | --- | --- | --- | --- | --- | --- | --- | --- | --- | --- | --- | --- | --- | --- | --- |
| COc1ccc(F)cc1[C@H](Cn1c(=O)n(C(C)(C)C(=O)N2CCCC2)c(=O)c2c(C)c(-n3cccn3)sc21)OCCO [Compound I-36, (R)-1-(2-(5-fluoro-2-methoxyphenyl)-2-(2-hydroxy-ethoxy)ethyl)-5-methyl-3-(2-methyl-1-oxo-1-(pyrrolidin-1-yl)propan-2-yl)-6-(1H-pyrazol-1-yl)thieno[2,3-d]pyrimidine-2,4(1H,3H)-dione] | 3 to 10 | 0.6 to 3 | 2.1 to 4 (≈ 3.5 to 6.67 µM) | 2.1 to 4 (≈ 3.5 to 6.67 µM) | 1.1 to 2 (≈ 1.83 to 3.34 µM) | > 50 | > 50 | 2 (≈ 3.34 µM) | 2 (≈ 3.34 µM) | > 50 | 10 (≈ 16.7 µM) | > 50 | 10 (≈ 16.7 µM) | 2 (≈ 3.34 µM) | 2 (≈ 3.34 µM) | > 50 | 10 (≈ 16.7 µM) | D (“D” provided a compound concentration of >50 ppm at 90% inhibition of fungal pathogens) | > 50 | > 50 | Concentration at 90% Inhibition Pc ([5]; Table 4b, 48 hours): D (“D” provided a compound concentration of >50 ppm at 90% inhibition of fungal pathogens) |
| COc1ccc(F)cc1[C@H](Cn1c(=O)n(CC(=O)N2CCCC2)c(=O)c2c(C)c(-n3cccn3)sc21)OC(C)C [Compound I-28, (R)-1-(2-(5-fluoro-2-methoxyphenyl)-2-isopropoxyethyl)-5-methyl-3-(2-oxo-2-(pyrrolidin-1-yl)ethyl)-6-(1H-pyrazol-1-yl)thieno[2,3-d]pyrimidine-2,4(1H,3H)-dione] | 10 to 40 | 0.6 to 3 | 0.25 to 1 (≈ 0.439 to 1.76 µM) | 0.25 to 1 (≈ 0.439 to 1.76 µM) | 0.25 to 1 (≈ 0.439 to 1.76 µM) | > 50 | > 50 | 2 (≈ 3.51 µM) | 2 (≈ 3.51 µM) | 10 (≈ 17.6 µM) | 2 (≈ 3.51 µM) | > 50 | 10 (≈ 17.6 µM) | 0.4 (≈ 0.702 µM) | 0.4 (≈ 0.702 µM) | 2 (≈ 3.51 µM) | 2 (≈ 3.51 µM) | D (“D” provided a compound concentration of >50 ppm at 90% inhibition of fungal pathogens) | > 50 | > 50 | Concentration at 90% Inhibition Pc ([5]; Table 4b, 48 hours): D (“D” provided a compound concentration of >50 ppm at 90% inhibition of fungal pathogens) |
| COc1ccc(F)cc1[C@H](Cn1c(=O)n(C(C)(C)C(=O)N2CCCCC2)c(=O)c2c(C)c(-n3cccn3)sc21)OC(C)C [Compound I-2, (R)-1-(2-(5-fluoro-2-methoxyphenyl)-2-isopropoxyethyl)-5-methyl-3-(2-methyl-1-oxo-1-(piperidin-1-yl)propan-2-yl)-6-(1H-pyrazol-1-yl)thieno[2,3-d]pyrimidine-2,4(1H,3H)-dione] | 10 to 40 | 0.6 to 3 | – | – | – | 0.4 (≈ 0.654 µM) | 0.4 (≈ 0.654 µM) | – | – | 0.4 (≈ 0.654 µM) | 0.4 (≈ 0.654 µM) | 2 (≈ 3.27 µM) | 2 (≈ 3.27 µM) | – | – | 0.4 (≈ 0.654 µM) | 0.4 (≈ 0.654 µM) | – | – | – | MIC (C. albicans ATCC 90028; ATCC90028, 48 h): 0.25 to 1 µg/mL (≈ 0.409 to 1.63 µM); MIC ([1]; ATCC22019, 48 h): 1.1 to 2 µg/mL (≈ 1.8 to 3.27 µM); MIC (C. krusei ATCC 6258; ATCC6258, 48 h): 0.25 to 1 µg/mL (≈ 0.409 to 1.63 µM); IC90 [2, 11]: 0.4 µg/mL (≈ 0.654 µM); IC90 [2, 12]: 0.4 µg/mL (≈ 0.654 µM); IC90 [4]: 0.08 µg/mL (≈ 0.131 µM); Concentration at 90% Inhibition Fm ([4]; Table 4b, 48 hours): AA (“AA” provided a compound concentration of 0.08 ppm at 90% inhibition of fungal pathogens); IC90 (Septoria tritici (St); 48 h, Table 4a): > 50 µg/mL; IC90 (Septoria tritici (St); 48 h, Table 4b): > 50 µg/mL; IC90 ([5]; 48 h, Table 4a): > 50 µg/mL; IC90 ([5]; 48 h, Table 4b): > 50 µg/mL |
| CCO[C@@H](Cn1c(=O)n(C(C)(C)C(=O)NC(C)C)c(=O)c2c(C)c(-n3cccn3)sc21)c1cc(F)ccc1OC [Compound I-33, (R)-2-(1-(2-ethoxy-2-(5-fluoro-2-methoxyphenyl)ethyl)-5-methyl-2,4-dioxo-6-(1H-pyrazol-1-yl)-1,4-dihydrothieno[2,3-d]pyrimidin-3(2H)-yl)-N-isopropyl-2-methylpropanamide] | 10 to 40 | 0.6 to 3 | – | – | – | > 50 | > 50 | – | – | 10 (≈ 17.5 µM) | 2 (≈ 3.5 µM) | 10 (≈ 17.5 µM) | 2 (≈ 3.5 µM) | – | – | 2 (≈ 3.5 µM) | 2 (≈ 3.5 µM) | – | – | – | MIC (C. albicans ATCC 90028; ATCC90028, 48 h): > 4.1 µg/mL; MIC ([1]; ATCC22019, 48 h): > 4.1 µg/mL; MIC (C. krusei ATCC 6258; ATCC6258, 48 h): > 4.1 µg/mL; IC90 [2, 11]: 0.4 µg/mL (≈ 0.7 µM); IC90 [2, 12]: 0.4 µg/mL (≈ 0.7 µM); IC90 [4]: 0.4 µg/mL (≈ 0.7 µM); Concentration at 90% Inhibition Fm ([4]; Table 4b, 48 hours): A (“A” provided a compound concentration of 0.4 ppm at 90% inhibition of fungal pathogens); IC90 (Septoria tritici (St); 48 h, Table 4a): > 50 µg/mL; IC90 (Septoria tritici (St); 48 h, Table 4b): > 50 µg/mL; IC90 ([5]; 48 h, Table 4a): > 50 µg/mL; IC90 ([5]; 48 h, Table 4b): > 50 µg/mL |
| COc1ccc(F)cc1[C@H](Cn1c(=O)n(C(C)(C)C(N)=O)c(=O)c2c(C)c(-n3cccn3)sc21)OCCC#N [Compound I-77, (R)-2-(1-(2-(2-cyanoethoxy)-2-(5-fluoro-2-methoxyphenyl)ethyl)-5-methyl-2,4-dioxo-6-(1H-pyrazol-1-yl)-1,4-dihydrothieno[2,3-d]pyrimidin-3(2H)-yl)-2-methylpropanamide] | > 40 | 0.6 to 3 | > 4.1 | > 4.1 | > 4.1 | – | > 50 | – | 10 (≈ 18 µM) | – | > 50 | – | > 50 | – | 2 (≈ 3.61 µM) | – | > 50 | – | – | – | IC90 (Septoria tritici (St); Table 4b, 48 hours): > 50 µg/mL; IC90 ([5]; Table 4b, 48 hours): > 50 µg/mL |

— patent publication US10941158B2, “Pyrazole ACC inhibitors and uses thereof” (Gilead Apollo, LLC, priority 2015, dated 2021)
